From patent US12661347B2 (Dr. Falk Pharma GmbH, priority 2020, dated 2026)
Read-outs that look alike come from different tables or passages of the source.

Tests used:
[1] = biological target: T1, TG2 (Homo sapiens, UniProt P21980); assay: Correlation of human pharmacokinetic data with in vitro TG2 inhibition (TG2-mediated deamidation of gluten)
T1 sequence (P21980 1-687): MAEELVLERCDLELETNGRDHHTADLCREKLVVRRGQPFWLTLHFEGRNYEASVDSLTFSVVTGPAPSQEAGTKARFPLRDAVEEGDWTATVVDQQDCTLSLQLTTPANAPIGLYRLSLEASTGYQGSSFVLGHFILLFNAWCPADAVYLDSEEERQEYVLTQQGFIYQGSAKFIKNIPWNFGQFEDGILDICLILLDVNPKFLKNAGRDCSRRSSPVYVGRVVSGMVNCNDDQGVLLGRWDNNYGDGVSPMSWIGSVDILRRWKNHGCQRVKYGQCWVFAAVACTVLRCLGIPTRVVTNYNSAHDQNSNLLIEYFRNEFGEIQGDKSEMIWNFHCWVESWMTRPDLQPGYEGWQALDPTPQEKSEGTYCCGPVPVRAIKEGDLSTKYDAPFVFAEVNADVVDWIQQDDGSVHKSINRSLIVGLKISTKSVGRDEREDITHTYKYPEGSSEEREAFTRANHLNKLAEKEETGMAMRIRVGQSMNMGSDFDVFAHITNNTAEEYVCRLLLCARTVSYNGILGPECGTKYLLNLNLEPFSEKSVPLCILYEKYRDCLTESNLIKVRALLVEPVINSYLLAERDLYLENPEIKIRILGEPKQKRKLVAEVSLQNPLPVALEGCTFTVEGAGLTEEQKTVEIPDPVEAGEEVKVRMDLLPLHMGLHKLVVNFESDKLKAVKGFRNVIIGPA
Source text: For the estimation of the therapeutic effective human dose, the drug concentration determined in vivo is compared with the drug concentrations resulting in an inhibition of the enzyme activity of TG2 in vitro (FIG. 2). Thereby, the TG2-mediated deamidation of gluten serves as a marker reaction. […] The 90% inhibition at IC90 can be regarded as maximal pharmacodynamic effect.

[2] = Side effects in humans at doses of up to 500 mg; assay type: in vivo
Description: Moreover, side effects related to potential off-target actions were not observed in humans even at doses of up to 500 mg. As aforementioned, this is particularly surprising due to the fact that TG2 is ubiquitously expressed in almost all cell types and cell compartments, it is present on the cell surface and gets secreted to the extracellular matrix, and is present in various organs, and thus it could be envisioned that off-target effects would be most likely.

[3] = Saturation solubility in the pH-range 1 to 6.8 (HPLC/UV); assay type: physicochemical
[4] = Simulation of the gastrointestinal tract, transfer model (donor medium to FaSSIF acceptor medium); assay type: physicochemical
Description: The solubility of the dose as well as the dissolution velocity under physiological conditions are critical parameters for the oral availability at the target site.
The transfer model consists of a vessel with 125 ml donor medium and a vessel with 500 m acceptor medium. The donor medium is transferred by means of pump (Piston pump Sotax CP7) in the acceptor medium so that 625 ml liquid is present in the acceptor vessel at the end of the experiment. The transfer rate amounts 10 ml/min. The donor medium is an artificial gastric juice in a sober state, and contains 34.2 mM sodium chloride (NaCl) in 0.1 hydrogen chloride (HCl). The acceptor medium consists of artificial […] in a sober state (FaSSIF) and contains 3 mM sodium taurocholate, and […] lecithine in phosphate buffer with a pH-value of 6.5. The temperature of the acceptor medium is adjusted to 37.5° C.±0.5° C. For the simulation of the gastrointestine motility, the acceptor medium is stirred continuously with a stirring paddle (50 rpm). A calibrated stirring paddle apparatus 2 according to the conditions of the USP (Sotax AT7 Smart) as an acceptor vessel is used. In FIG. 5, a scheme of the apparatus is illustrated.
The capsule was added to the donor medium.

[5] = Comparison of Cmax of the formulation (human) with the plain compound (animals), doses as human-equivalent-dose; assay type: in vivo, human; monkeys, pigs, rabbits, rats and mice; settings: formulation in human vs drug as suspension in animals
Description: Due to regulatory and ethical reasons pharmacokinetic data with the plain compound were only generated in animals but not in human subjects. The pharmacokinetic data of the plain compound were derived from several studies in monkeys, pigs, rabbits, rats and mice. In all studies the compound was administered orally after suspension in 0.5% (w/v) methylcellulose in water, pH 5±0.5. Blood samples were taken at various time points within 24 h after drug administration and quantified by means of a previously validated HPLC-MS/MS method. […] In order to compile the data from different species, doses were converted into human-equivalent-dose (HED) taking into account differences in the body surface area between species. The widely accepted species-specific conversion factors defined in the FDA guideline “Estimating the Maximum Safe Starting Dose in Initial Clinical Trials for Therapeutics in Adult Healthy Volunteers” (Issue date 2005) were used.

[6] = tested on: adult patients with Celiac Disease (CeD); assay: 6-week treatment of adult Celiac Disease patients challenged with 3 g daily gluten, placebo-controlled; assay type: in vivo, human
Description: Patients, who were in clinical and histological remission at start of the study were challenged with 3 grams daily gluten intake and randomized to receive placebo or one of 3 doses of the compound of formula (I), i.e. 10 mg, 50 mg or 100 mg.
Each morning after at least 6 hours of fasting, patients took the study drug orally, followed by one biscuit containing 3 g of gluten 30 minutes later, before breakfast. Throughout the 6-week study, patients were required to continue their strict gluten free diet.
The primary endpoint of the study was, whether the compound of formula (I) could prevent gluten-induced change in intestinal mucosal morphology. Before start (baseline) and after end of the 6 weeks of treatment endoscopies were conducted by an experienced gastroenterologist. Four endoscopy forceps biopsy samples with one biopsy bite per pass were taken from the second and third part of the duodenum and preserved in a PAXgene fixative containers. Tissue slides of the biopsies were scanned as whole-slide images and the villous height (VH) and crypt depth (CrD) in the mucosal samples were measured. In addition, the density of CD3+ intra-epithelial lymphocytes (IELs), an indicator of inflammation, was counted. Symptoms of CeD the patients were recorded by patient-reported outcomes (PROs) and measured by the Celiac Symptom Index (CSI) (Ref1) and Celiac Disease Questionnaire (CDQ) (Ref2).

[7] = biological target: T2, small intestinal tissue transglutaminase (TG2) (Mus musculus, UniProt P21981); settings: plain, unformulated compound, cited from earlier work
T2 construct: from tissue; host or cells: small intestine (jejunum) and colon of the treated animals
T2 sequence (P21981 1-686): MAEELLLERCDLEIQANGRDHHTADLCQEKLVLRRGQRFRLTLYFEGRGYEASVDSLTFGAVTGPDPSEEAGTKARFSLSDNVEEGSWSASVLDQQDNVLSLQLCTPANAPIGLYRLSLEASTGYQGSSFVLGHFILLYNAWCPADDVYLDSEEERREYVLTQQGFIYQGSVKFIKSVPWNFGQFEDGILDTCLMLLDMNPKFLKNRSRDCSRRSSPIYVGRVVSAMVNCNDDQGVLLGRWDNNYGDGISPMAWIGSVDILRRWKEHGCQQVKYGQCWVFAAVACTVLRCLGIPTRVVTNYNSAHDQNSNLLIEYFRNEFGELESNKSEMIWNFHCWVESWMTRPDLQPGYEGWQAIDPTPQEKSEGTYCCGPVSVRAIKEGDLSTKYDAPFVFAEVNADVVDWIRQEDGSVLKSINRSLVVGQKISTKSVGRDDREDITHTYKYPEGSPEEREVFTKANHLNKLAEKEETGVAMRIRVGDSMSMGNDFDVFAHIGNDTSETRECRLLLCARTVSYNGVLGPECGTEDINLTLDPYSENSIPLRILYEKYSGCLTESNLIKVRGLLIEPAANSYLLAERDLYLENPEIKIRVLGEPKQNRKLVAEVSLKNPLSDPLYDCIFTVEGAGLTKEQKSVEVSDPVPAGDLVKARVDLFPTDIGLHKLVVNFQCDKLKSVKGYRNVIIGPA

[8] = Pharmacokinetic after oral administration of the systemic formulation in healthy volunteers (plasma, HPLC-MS/MS); assay type: in vivo, human
Description: The pharmacokinetic of (S,E)-methyl-7-(1-(2-(2-ethylbutylamino)-2-oxoethyl)-2-oxo-1,2-dihydro-pyridin-3-ylamino)-6-(1-methyl-1H-imidazole-5-carboxamido)-7-oxohept-2-enoate (compound of formula (I)) was investigated in healthy volunteers. Cohorts of 18 subjects each were treated with an oral daily dose of 10, 20, 50 and 100 mg compound of formula (I), respectively over a time period of 7 days.
The determination of said compound in blood plasma was performed by means of a previously validated HPLC-MS/MS method.

CCC(CC)CNC(=O)Cn1cccc(NC(=O)[C@H](CC/C=C/C(=O)OC)NC(=O)c2cncn2C)c1=O [(S,E)-methyl-7-(1-(2-(2-ethylbutylamino)-2-oxoethyl)-2-oxo-1,2-dihydro-pyridin-3-ylamino)-6-(1-methyl-1H-imidazole-5-carboxamido)-7-oxohept-2-enoate]
dose sufficient to achieve a therapeutic effective drug concentration ([1]; human): 20 to 50 mg

CCC(CC)CNC(=O)Cn1cccc(NC(=O)[C@H](CC/C=C/C(=O)OC)NC(=O)c2cncn2C)c1=O [compound of formula (I), (S,E)-methyl-7-(1-(2-(2-ethylbutylamino)-2-oxoethyl)-2-oxo-1,2-dihydro-pyridin-3-ylamino)-6-(1-methyl-1H-imidazole-5-carboxamido)-7-oxohept-2-enoate]
side effects related to potential off-target actions [2]: not observed | saturation solubility at pH=6.8 (duodenum) compared with pH~1 [3]: much lower | solubility ([4]; FaSSIF (acceptor medium), FaSSIF, phosphate buffer pH 6.5, read-out: solubility in the acceptor medium): 0.2 mg/mL | solubility ([4]; FaSSIF medium, pH 6.5, fassif, thermodynamic from solid, pH-value of 6.5, read-out: saturation solubility of the pure drug): 0.18 mg/mL | solubility ([4]; artificial gastric juice, sober state (donor medium), simulated gastric fluid, 34.2 mM NaCl in 0.1 HCl, read-out: solubility in the donor medium): 4.4 mg/mL | drug concentration normalized to body weight versus animal studies with suspension [5]: remarkably higher | drug level in vivo compared with in vitro TG2 inhibition ([1]; dose of 10 mg): half maximal inhibition (IC50) of TG2 is already achieved | drug level in vivo compared with in vitro TG2 inhibition ([1]; dose of 50 mg of the new developed formulation): exceeding the IC90 | effect of gluten on VH:CrD (mucosal deterioration) ([6]; 10 mg dose, baseline to week 6): prevented mucosal deterioration to a lesser degree | CDQ scores, change from baseline to week 6 ([6]; 10 mg, 50 mg and 100 mg groups, increase = better quality of life): increased | effect of gluten on VH:CrD (villus height-to-crypt depth ratio) ([6]; daily dose 50 mg, baseline to week 6): almost completely prevented the deleterious effect of gluten on VH:CrD | effect of gluten on VH:CrD (villus height-to-crypt depth ratio) ([6]; daily dose 100 mg, baseline to week 6): almost completely prevented the deleterious effect of gluten on VH:CrD | gluten-induced symptoms and quality of life ([6]; hard gelatine capsule formulation of example 2): significantly improved | safety profile (frequency and severity of adverse events) ([6]; hard gelatine capsule formulation of example 2, 6 weeks): comparable to placebo | intestinal mucosal injury ([6]; hard gelatine capsule formulation of example 2, moderate dose of daily gluten): effectively prevented intestinal mucosal injury | activity of intestinal TG2 ([7]; TG2 activated by poly(I:C)): reduced the activity of intestinal TG2 to normal levels | intestinal inflammation [7]: subdued intestinal inflammation | safety of administration [7]: safe | increase of drug concentration with dose ([8]; dose range 10-100 mg, formulation): dose-proportionally | Tmax ([8]; human, plasma, oral daily dose 10, 20, 50, 100 mg for 7 days, hard gelatine capsule of example 2, read-out: tmax (maximum of plasma drug level after administration)): ~1 h
